Test results published in PubChem BioAssay AID1963829 (Molecular Pharmacology Branch, DTP, NCI, 2024).

System: 935938-334-R-J1-PDC complex spheroid viability
Assay: Anticancer human tumor 935938-334-R-J1-PDC patient-derived small intestine adenocarcinoma cell line growth inhibition [POLQ]
Conditions: for IC50: curve of first compound; for viability, T/C: stronger effect = lower value; active means viability on the fitted dose curve at most 10% of control; inactive means the rest
Protocol: Multicellular complex tumor spheroid response to Polymerase (POL) inhibitors (novobiocin, ART-558, RP6685) in combination with a variety of drugs and investigational agents in selected tumor cell lines
The POL inhibitors (novobiocin, ART-558, and RP6685) were evaluated both individually and in combination with standard of care and investigational anticancer small molecules within a complex spheroid model of solid tumors. . Complex spheroids include a stromal component modeled by human endothelial cells (HUVEC) and fibroblasts modeled by human mesenchymal stem cells (MSCs). The concentration ranges selected for each drug and investigational agent were based upon clinically achievable concentrations if the clinical Cmax of the agent was known.
Compounds. The drugs and investigational agents: novobiocin (NSC847541), ART-558 (NSC835418), RP-6685 (NSC848927), peposertib (NSC802822), ceralasertib (NSC780249), elimusertib (NSC800525), camonsertib (NSC841442), AZD-1390 (NSC803789), olaparib (NSC753686), talazoparib (NSC767125), rucaparib (NSC756644), sotorasib (NSC818433), MRTX-1133 (NSC836407), SN-38 (NSC673596), topotecan (NSC609699), epotoside (NSC141540), doxorubicin (NSC123127), gemcitabine (NSC613327), 5-fluorouracil (NSC19893), paclitaxel (NSC125973), vemurafenib (NSC761431), MSA-2 (NSC828583), SN-011 (NSC837082), adavosertib (NSC754352), prexasertib (NSC758257), carboplatin (NSC241240) and oxaliplatin (NSC266046), were obtained from the National Cancer Institute (NCI) Developmental Therapeutics Program Chemical Repository (21). The FDA-approved anticancer drug set is available from the Developmental Therapeutics Program at https://dtp.cancer.gov/organization/dscb/obtaining/. […] The stock solutions were prepared in dimethyl sulfoxide (DMSO, Sigma-Aldrich, St. Louis, MO, cat. D2650), except for the platinum compounds which were prepared in saline (Quality Biological, Gaithersburg, MD, cat. 114-055-101), at 800-fold the tested concentration and stored at -70 degrees C prior to their use. All drugs and investigational agents were tested over a range starting from a high concentration at or near the clinical Cmax and decreasing in half-log increments. If the clinical Cmax for an agent had not been determined, the highest concentration tested was 10 microM, except for SN-38, which was tested at a high concentration of 1 microM.
Cell Culture. All cells were maintained in an incubator at 37 degrees C and 5% CO2 with 95% humidity. The PDC lines were cultured according to standard operating procedures established by the NCI PDMR (https://pdmr.cancer.gov). Table 3 of the manuscript, lists the cell lines along with the number of the three cell types plated to form the mct-spheroids and media for tumor cell growth. After thawing, all PDC lines, except 997537-175-T-J1-PDC and 415267-285-R-J2-PDC, were cultured in Matrigel-coated flasks prepared with a working solution of 1X Ham's F-12 nutrient mix, without supplementation (Thermo Fisher Scientific, cat. 11765054), 100 U/mL penicillin-streptomycin (Thermo Fisher Scientific, cat. 15140122), and 2.5% Matrigel (Corning Inc., Corning, NY, cat. 354248) for the first three passages. The two PDC lines 997537-175-T-J1-PDC and 415267-285-R-J2-PDC were cultured on uncoated flasks. The 857933-349-R-J2-PDC line was cultured in 6C/Colon 1B media containing advanced DMEM/F-12 (Thermo Fisher Scientific, cat. 12634028), 10 mM HEPES (Thermo Fisher Scientific, cat. 15630080), 1X GlutaMAX supplement (Thermo Fisher Scientific, cat. 35050061), 0.1 mg/mL primocin (InvivoGen, San Diego, CA, cat. ant-pm-2), 10% defined fetal bovine serum, heat inactivated (HyClone Laboratories Inc., Logan, UT, cat. SH30070.03HI), 50% L-WRN conditioned media (ATCC, cat. CRL-3276), 1.25 mM N-Acetyl-L-cysteine (Sigma-Aldrich, cat. A9165), 10 mM nicotinamide (Sigma-Aldrich, cat. N0636), 1X B-27 supplement (Thermo Fisher Scientific, cat. 17504044), 1X N-2 supplement (Thermo Fisher Scientific, cat. […]

[1] = second compound 0.0316 µM, first compound 0.0316 µM
[2] = second compound 0.0316 µM, first compound 0.1 µM
[3] = second compound 0.0316 µM, first compound 0.316 µM
[4] = second compound 0.0316 µM, first compound 1 µM
[5] = second compound 0.0316 µM, first compound 3.16 µM
[6] = second compound 0.0316 µM, first compound 10 µM
[7] = second compound 0.1 µM, first compound 0.0316 µM
[8] = second compound 0.1 µM, first compound 0.1 µM
[9] = second compound 0.1 µM, first compound 0.316 µM
[10] = second compound 0.1 µM, first compound 1 µM
[11] = second compound 0.1 µM, first compound 3.16 µM
[12] = second compound 0.1 µM, first compound 10 µM
[13] = second compound 0.316 µM, first compound 0.0316 µM
[14] = second compound 0.316 µM, first compound 0.1 µM
[15] = second compound 0.316 µM, first compound 0.316 µM
[16] = second compound 0.316 µM, first compound 1 µM
[17] = second compound 0.316 µM, first compound 3.16 µM
[18] = second compound 0.316 µM, first compound 10 µM
[19] = second compound 1 µM, first compound 0.0316 µM
[20] = second compound 1 µM, first compound 0.1 µM
[21] = second compound 1 µM, first compound 0.316 µM
[22] = second compound 1 µM, first compound 1 µM
[23] = second compound 1 µM, first compound 3.16 µM
[24] = second compound 1 µM, first compound 10 µM
[25] = second compound 3.16 µM, first compound 0.0316 µM
[26] = second compound 3.16 µM, first compound 0.1 µM
[27] = second compound 3.16 µM, first compound 0.316 µM
[28] = second compound 3.16 µM, first compound 1 µM
[29] = second compound 3.16 µM, first compound 3.16 µM
[30] = second compound 3.16 µM, first compound 10 µM
[31] = second compound 10 µM, first compound 0.0316 µM
[32] = second compound 10 µM, first compound 0.1 µM
[33] = second compound 10 µM, first compound 0.316 µM
[34] = second compound 10 µM, first compound 1 µM
[35] = second compound 10 µM, first compound 3.16 µM
[36] = second compound 10 µM, first compound 10 µM
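Further: spheroids exposed to drugs for seven days before viability read.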
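Wherever viability, T/C is given: 100% = DMSO vehicle control wells.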

O=C(Nc1ccc(O)c(NS(=O)(=O)c2ccc(F)cc2)c1)c1ccc(-c2ccccc2)cc1 + Cc1cccc(N(C)C(=O)C2C(O)CCN2c2nc(C)cc(C(F)(F)F)c2C#N)c1
8040 nM: IC50 (second compound 10 µM)
inactive: viability, T/C [1] 116% | viability, T/C [2] 91% | viability, T/C [3] 99.3% | viability, T/C [4] 95% | viability, T/C [5] 89.3% | viability, T/C [6] 64.8% | viability, T/C [7] 83% | viability, T/C [8] 73.9% | viability, T/C [9] 76.1% | viability, T/C [10] 109% | viability, T/C [11] 98.1% | viability, T/C [12] 65.9% | viability, T/C [13] 85.9% | viability, T/C [14] 93.9% | viability, T/C [15] 71.4% | viability, T/C [16] 99.2% | viability, T/C [17] 123% | viability, T/C [18] 65.1% | viability, T/C [19] 91.3% | viability, T/C [20] 80.3% | viability, T/C [21] 100% | viability, T/C [22] 92.2% | viability, T/C [23] 72.8% | viability, T/C [24] 56.2% | viability, T/C [25] 93.2% | viability, T/C [26] 114% | viability, T/C [27] 95.3% | viability, T/C [28] 88.6% | viability, T/C [29] 98.6% | viability, T/C [30] 61% | viability, T/C [31] 92.4% | viability, T/C [32] 106% | viability, T/C [33] 101% | viability, T/C [34] 100% | viability, T/C [35] 71.1% | viability, T/C [36] 45.1%
> 10000 nM: IC50 (second compound 0.0316 µM) | IC50 (second compound 0.1 µM) | IC50 (second compound 0.316 µM) | IC50 (second compound 1 µM) | IC50 (second compound 3.16 µM)

COc1cccc2c1C(=O)c1c(O)c3c(c(O)c1C2=O)CC(O)(C(=O)CO)CC3OC1CC(N)C(O)C(C)O1 (centres undefined) + Nc1ccc(C#CCN(C(=O)Cc2ncc(C(F)(F)F)cc2C(F)(F)F)c2ccc(F)cc2)nn1
active: viability, T/C [5] 8.04% | viability, T/C [6] 3.61% | viability, T/C [11] 7.02% | viability, T/C [12] 3.54% | viability, T/C [18] 3.32% | viability, T/C [24] 4.86% | viability, T/C [29] 5.88% | viability, T/C [30] 5.57% | viability, T/C [36] 6.61%
78.1 nM: IC50 (second compound 10 µM)
54.6 nM: IC50 (second compound 1 µM)
35.3 nM: IC50 (second compound 3.16 µM)
86.4 nM: IC50 (second compound 0.1 µM)
inactive: viability, T/C [1] 67.3% | viability, T/C [2] 39.4% | viability, T/C [3] 27.4% | viability, T/C [4] 22.2% | viability, T/C [7] 69.9% | viability, T/C [8] 45.5% | viability, T/C [9] 31.3% | viability, T/C [10] 19.6% | viability, T/C [13] 49.8% | viability, T/C [14] 32.1% | viability, T/C [15] 30.9% | viability, T/C [16] 23.7% | viability, T/C [17] 8.73% | viability, T/C [19] 58.9% | viability, T/C [20] 38.8% | viability, T/C [21] 30.3% | viability, T/C [22] 18.8% | viability, T/C [23] 9.11% | viability, T/C [25] 52.6% | viability, T/C [26] 35.4% | viability, T/C [27] 27.9% | viability, T/C [28] 20.3% | viability, T/C [31] 68.1% | viability, T/C [32] 38.4% | viability, T/C [33] 38% | viability, T/C [34] 18.9% | viability, T/C [35] 5.97%
70.9 nM: IC50 (second compound 0.0316 µM)
< 31.6 nM: IC50 (second compound 0.316 µM)
